Data: US6878722B2, “Substituted cycloalkyl P1′ hepatitis C virus inhibitors” (Bristol-Myers Squibb Company, priority 2002, dated 2005)
Read-outs that look alike come from different tables or passages of the source.

Key:
[1] = target: T1, HCV NS3/4A protease complex (BMS strain, genotype 1a) (Hepatitis C virus genotype 1a, UniProt P27958, C1454S); experiment: Recombinant HCV NS3/4A protease complex FRET peptide assay, BMS strain; format: biochemical; conditions: IC50 range, NS3/4A BMS Strain
T1 construct: DNA encoding the recombinant HCV NS3/4A protease complex (amino acids 1027 to 1711) for these strains; inferred from the pET21b vector and Ni-NTA purification; made in house; host or cells: Escherichia coli BL21 (DE3), pET21b
How it was run: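 Recombinant NS3/4A complex (aa 1027–1711) with C-terminal three-lysine tail, C1711G and C1454S, expressed in E. coli BL21(DE3) and purified by Ni-NTA then Superdex-S200. Inhibition of the complex from each strain measured in vitro by FRET peptide cleavage.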

[2] = test system: HCV replicon in Huh7 cells; experiment: HCV replicon cell-based assay (FRET); conditions: Hepatitis C virus
How it was run: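 Huh7 cells stably carrying a genotype 1b HCV replicon (IRES-neo-EMCV-IRES-NS3-NS5B) were treated with compound for 4 days at 37 °C in 0.5% DMSO final. Lysates containing 10 μM FRET peptide RET S1 were read kinetically at 340/490 nm to give NS3 protease activity, from which EC50 was derived.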

[3] = Huh-7, HCV replicon, read-out: EC50 range

T1 sequence (P27958 1658-1714, looked up, stated change not applied): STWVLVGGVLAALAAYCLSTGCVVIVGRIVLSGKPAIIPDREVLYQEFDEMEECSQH
T1 sequence (P27958 1027-1657, looked up, stated change not applied): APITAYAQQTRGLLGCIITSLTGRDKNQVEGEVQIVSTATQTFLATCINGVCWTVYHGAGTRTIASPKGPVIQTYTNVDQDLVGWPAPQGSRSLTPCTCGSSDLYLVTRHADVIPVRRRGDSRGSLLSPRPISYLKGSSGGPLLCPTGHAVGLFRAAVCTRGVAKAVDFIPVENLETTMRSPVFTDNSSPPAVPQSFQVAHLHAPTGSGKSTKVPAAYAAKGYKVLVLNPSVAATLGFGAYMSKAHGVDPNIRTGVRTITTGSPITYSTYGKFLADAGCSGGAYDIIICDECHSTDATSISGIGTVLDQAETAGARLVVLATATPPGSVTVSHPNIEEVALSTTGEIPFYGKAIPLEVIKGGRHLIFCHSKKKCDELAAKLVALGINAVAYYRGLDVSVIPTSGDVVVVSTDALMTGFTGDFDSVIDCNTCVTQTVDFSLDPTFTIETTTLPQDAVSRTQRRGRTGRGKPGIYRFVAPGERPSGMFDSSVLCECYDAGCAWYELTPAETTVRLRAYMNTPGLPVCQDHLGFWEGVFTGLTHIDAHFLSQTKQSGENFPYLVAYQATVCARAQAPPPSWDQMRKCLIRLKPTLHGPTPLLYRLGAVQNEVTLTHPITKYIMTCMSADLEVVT

In the case of `COc1ccc2c(O[C@@H]3C[C@@H](C(=O)NC4(C(=O)NS(=O)(=O)C5(Cc6ccccc6)CC5)CC4)N(C(=O)[C@@H](NC(=O)OC(C)(C)C)C(C)(C)C)C3)cc(-c3ccccc3)nc2c1` [Compound 74, {1-[2-[1-(1-Benzyl-cyclopropanesulfonylaminocarbonyl)-cyclopropylcarbamoyl]-4-(7-methoxy-2-phenyl-quinolin-4-yloxy)-pyrrolidine-1-carbonyl]-2,2-dimethyl-propyl}-carbamic acid tert-butyl ester], the IC50 [1] is reported as 500 to 5000 nM and the EC50 [2, 3] is reported as 5000 to 50000 nM.
Molecule `C=CCC1(S(=O)(=O)NC(=O)C2(NC(=O)[C@@H]3C[C@@H](Oc4cc(-c5ccccc5)nc5cc(OC)ccc45)CN3C(=O)[C@@H](NC(=O)OC(C)(C)C)C(C)(C)C)CC2)CC1` [Compound 75, {1-[2-[1-(1-Allyl-cyclopropanesulfonylaminocarbonyl)-cyclopropylcarbamoyl]-4-(7-methoxy-2-phenyl-quinolin-4-yloxy)-pyrrolidine-1-carbonyl]-2,2-dimethyl-propyl}-carbamic acid tert-butyl ester] has an IC50 [1] of under 50 nM and an EC50 [2, 3] of 500 to 5000 nM.
`COc1ccc2c(O[C@@H]3C[C@@H](C(=O)NC4(C(=O)NS(=O)(=O)C5(C6=CCCCC6)CC5)CC4)N(C(=O)[C@@H](NC(=O)OC(C)(C)C)C(C)(C)C)C3)cc(-c3ccccc3)nc2c1` [Compound 76, {1-[2-[1-(1-Cyclohex-1-enyl-cyclopropanesulfonylaminocarbonyl)-cyclopropylcarbamoyl]-4-(7-methoxy-2-phenyl-quinolin-4-yloxy)-pyrrolidine-1-carbonyl]-2,2-dimethyl-propyl}-carbamic acid tert-butyl ester] was tested, and the IC50 [1] was 50 to 500 nM and the EC50 [2, 3] was 500 to 5000 nM.
With `C=C[C@@H]1C[C@]1(NC(=O)[C@@H]1C[C@@H](Oc2cc(-c3nc(C(C)C)cs3)nc3cc(OC)ccc23)CN1C(=O)[C@@H](NC(=O)OC(C)(C)C)C(C)(C)C)C(=O)OS(=O)(=O)C1(CCC)CC1` [Compound 77] the IC50 [1] was under 50 nM and the EC50 [2, 3] was under 50 nM.
In the case of `C=C[C@@H]1C[C@]1(NC(=O)[C@@H]1C[C@@H](Oc2cc(-c3csc(NC(C)C)n3)nc3cc(OC)ccc23)CN1C(=O)[C@@H](NC(=O)OC(C)(C)C)C(C)(C)C)C(=O)NS(=O)(=O)C1(CC2CC2)CC1` [Compound 80, (1-{2-[1-(1-Cyclopropylmethyl-cyclopropanesulfonylaminocarbonyl)-2-vinyl-cyclopropylcarbamoyl]-4-[2-(2-isopropylamino-thiazol-4-yl)-7-methoxy-quinolin-4-yloxy]-pyrrolidine-1-carbonyl}-2,2-dimethyl-propyl)-carbamic acid tert-butyl ester], the IC50 [1] is reported as under 50 nM and the EC50 [2, 3] is reported as 50 to 500 nM.
Work on `C=C[C@@H]1C[C@]1(NC(=O)[C@@H]1C[C@@H](Oc2cc(-c3ccccc3)nc3cc(OC)ccc23)CN1C(=O)[C@@H](NC(=O)OC1(C(=O)OCC)CC1)C(C)(C)C)C(=O)NS(=O)(=O)C1(Cc2ccccc2)CC1` [Compound 81] yielded an IC50 [1] of 50 to 500 nM and an EC50 ([2]; Huh-7, read-out: EC50 range) of 50 to 500 nM.
Molecule `C=C[C@@H]1C[C@]1(NC(=O)[C@@H]1C[C@@H](Oc2cc(-c3ccccc3)nc3cc(OC)ccc23)CN1C(=O)[C@@H](NC(=O)Oc1ccc(C)cc1)C(C)(C)C)C(=O)NS(=O)(=O)C1(Cc2ccccc2)CC1` [Compound 100] has an IC50 [1] of 50 to 500 nM and an EC50 [2, 3] of 500 to 5000 nM.
Molecule `C=C[C@@H]1C[C@]1(NC(=O)[C@@H]1C[C@@H](Oc2cc(-c3ccccc3)nc3cc(OC)ccc23)CN1C(=O)[C@@H](NC(=O)Oc1ccccc1)C(C)(C)C)C(=O)NS(=O)(=O)C1(Cc2ccccc2)CC1` [Compound 101] has an IC50 [1] of 50 to 500 nM and an EC50 [2, 3] of 500 to 5000 nM.
Work on `C=C[C@@H]1C[C@]1(NC(=O)[C@@H]1C[C@@H](Oc2cc(-c3ccccc3)nc3cc(OC)ccc23)CN1C(=O)[C@@H](NC(=O)Oc1ccc(F)cc1)C(C)(C)C)C(=O)NS(=O)(=O)C1(Cc2ccccc2)CC1` [Compound 102] yielded an IC50 [1] of 50 to 500 nM and an EC50 [2, 3] of 500 to 5000 nM.
In the case of `C=C[C@@H]1C[C@]1(NC(=O)[C@@H]1C[C@@H](Oc2cc(-c3ccccc3)nc3cc(OC)ccc23)CN1C(=O)[C@@H](NC(=O)Oc1ccc(OC)cc1)C(C)(C)C)C(=O)NS(=O)(=O)C1(Cc2ccccc2)CC1` [Compound 103], the IC50 [1] is reported as 50 to 500 nM and the EC50 [2, 3] is reported as 50 to 500 nM.
In the case of `C=C[C@@H]1C[C@]1(NC(=O)[C@@H]1C[C@@H](Oc2cc(-c3ccccc3)nc3cc(OC)ccc23)CN1C(=O)[C@@H](NC(=O)OCCOC)C(C)(C)C)C(=O)NS(=O)(=O)C1(Cc2ccccc2)CC1` [Compound 104], the IC50 [1] is reported as 50 to 500 nM and the EC50 [2, 3] is reported as 500 to 5000 nM.
In the case of `C=C[C@@H]1C[C@]1(NC(=O)[C@@H]1C[C@@H](Oc2cc(-c3ccccc3)nc3cc(OC)ccc23)CN1C(=O)[C@@H](NC(=O)OCC(C)(C)C)C(C)(C)C)C(=O)NS(=O)(=O)C1(Cc2ccccc2)CC1` [Compound 105], the IC50 [1] is reported as under 50 nM and the EC50 [2, 3] is reported as 50 to 500 nM.
`C=C[C@@H]1C[C@]1(NC(=O)[C@@H]1C[C@@H](Oc2cc(-c3ccccc3)nc3cc(OC)ccc23)CN1C(=O)[C@@H](NC(=O)OCCF)C(C)(C)C)C(=O)NS(=O)(=O)C1(Cc2ccccc2)CC1` [Compound 106] showed an IC50 [1] of under 50 nM and an EC50 [2, 3] of 50 to 500 nM.
In the case of `C=C[C@@H]1C[C@]1(NC(=O)[C@@H]1C[C@@H](Oc2cc(-c3ccccc3)nc3cc(OC)ccc23)CN1C(=O)[C@@H](NC(=O)Oc1ccccc1OC)C(C)(C)C)C(=O)NS(=O)(=O)C1(Cc2ccccc2)CC1` [Compound 107], the IC50 [1] is reported as 50 to 500 nM and the EC50 [2, 3] is reported as 500 to 5000 nM.
`C=C[C@@H]1C[C@]1(NC(=O)[C@@H]1C[C@@H](Oc2cc(-c3ccccc3)nc3cc(OC)ccc23)CN1C(=O)[C@@H](NC(=O)Oc1cccc(C(F)(F)F)c1)C(C)(C)C)C(=O)NS(=O)(=O)C1(Cc2ccccc2)CC1` [Compound 108] was tested, and the IC50 [1] was 50 to 500 nM and the EC50 [2, 3] was 500 to 5000 nM.
`C=C[C@@H]1C[C@]1(NC(=O)[C@@H]1C[C@@H](Oc2cc(-c3ccccc3)nc3cc(OC)ccc23)CN1C(=O)[C@@H](NC(=O)CC(C)(C)C)C(C)(C)C)C(=O)NS(=O)(=O)C1(Cc2ccccc2)CC1` [Compound 110] gave an IC50 [1] of 50 to 500 nM and an EC50 [2, 3] of 50 to 500 nM.
Work on `C=C[C@@H]1C[C@]1(NC(=O)[C@@H]1C[C@@H](Oc2cc(-c3ccccc3)nc3cc(OC)ccc23)CN1C(=O)[C@@H](NC(=O)COC)C(C)(C)C)C(=O)NS(=O)(=O)C1(Cc2ccccc2)CC1` [Compound 111] yielded an IC50 [1] of 50 to 500 nM and an EC50 [2, 3] of 50 to 500 nM.
`C=C[C@@H]1C[C@]1(NC(=O)[C@@H]1C[C@@H](Oc2cc(-c3ccccc3)nc3cc(OC)ccc23)CN1C(=O)[C@@H](NC(=O)CCOC)C(C)(C)C)C(=O)NS(=O)(=O)C1(Cc2ccccc2)CC1` [Compound 112] gave an IC50 [1] of 50 to 500 nM and an EC50 [2, 3] of 50 to 500 nM.
Molecule `C=C[C@@H]1C[C@]1(NC(=O)C1C[C@@H](Oc2cc(-c3ccccc3)nc3cc(OC)ccc23)CN1C(=O)[C@@H](NC(=O)[C@@H](OC)c1ccccc1)C(C)(C)C)C(=O)NS(=O)(=O)C1(CC2CC2)CC1` (stereo partly shown) [Compound 119] has an IC50 [1] of under 50 nM and an EC50 [2, 3] of 50 to 500 nM.
For `C=C[C@@H]1C[C@]1(NC(=O)C1CC(Oc2cc(-c3ccccc3)nc3cc(OC)ccc23)CN1C(=O)[C@@H](NC(=O)N(C)C(C)(C)C)C(C)(C)C)C(=O)NS(=O)(=O)C1(CC2CC2)CC1` (stereo partly shown) [Compound 120], the IC50 [1] was under 50 nM and the EC50 [2, 3] was 50 to 500 nM.
For `CCCC1(S(=O)(=O)NC(=O)[C@@]2(NC(=O)[C@@H]3C[C@@H](Oc4cc(-c5ccccc5)nc5cc(OC)ccc45)CN3C(=O)[C@@H](NC(=O)OC(C)(C)C)C(C)(C)C)CC2C2CC2)CC1` (stereo partly shown) [Compound 203], the IC50 [1] was under 50 nM and the EC50 [2, 3] was 50 to 500 nM.
In the case of `COc1ccc2c(O[C@@H]3C[C@@H](C(=O)N[C@]4(C(=O)NS(=O)(=O)C5(Cc6ccccc6)CC5)CC4C4CC4)N(C(=O)[C@@H](NC(=O)OC(C)(C)C)C(C)(C)C)C3)cc(-c3ccccc3)nc2c1` (stereo partly shown) [Compound 204], the IC50 [1] is reported as 50 to 500 nM and the EC50 [2, 3] is reported as 50 to 500 nM.
For `COc1ccc2c(O[C@@H]3C[C@@H](C(=O)N[C@]4(C(=O)NS(=O)(=O)C5(CC6CC6)CC5)CC4C4CC4)N(C(=O)[C@@H](NC(=O)OC(C)(C)C)C(C)(C)C)C3)cc(-c3ccccc3)nc2c1` (stereo partly shown) [Compound 205], the IC50 [1] was under 50 nM and the EC50 [2, 3] was 50 to 500 nM.
